Assay [1] addresses recombinant poly(ADP-ribose) polymerase 1 (PARP1) (Homo sapiens (Human), UniProt P09874).
Assay [2] addresses recombinant poly(ADP-ribose) polymerase 2 (PARP2). Description: PARP2 chemiluminescent assay. The assay is classed as biochemical. The note with it: inhibition of PARP2 enzyme activity, chemiluminescence.
The test system of another assay is MDA-MB-436 cells. Description: Growth inhibition assay against BRCA mutant human breast cancer MDA-MB-436 cell line (CCK-8). The assay is classed as cell-based. The note with it: proliferation of MDA-MB-436 cells, 7 days.

Among the data in US20250215013A1, “SUBSTITUTED TRICYCLIC COMPOUNDS AS PARP INHIBITORS AND THE USE THEREOF” (IMPACT THERAPEUTICS (SHANGHAI), INC., priority 2022, published 2025) are IC50 values, retold here.

SMILES strings stand for the structures. Where only a bound is given, the exact number is not on record here.

Chain of recombinant poly(ADP-ribose) polymerase 1 (PARP1) (P09874 whole entry): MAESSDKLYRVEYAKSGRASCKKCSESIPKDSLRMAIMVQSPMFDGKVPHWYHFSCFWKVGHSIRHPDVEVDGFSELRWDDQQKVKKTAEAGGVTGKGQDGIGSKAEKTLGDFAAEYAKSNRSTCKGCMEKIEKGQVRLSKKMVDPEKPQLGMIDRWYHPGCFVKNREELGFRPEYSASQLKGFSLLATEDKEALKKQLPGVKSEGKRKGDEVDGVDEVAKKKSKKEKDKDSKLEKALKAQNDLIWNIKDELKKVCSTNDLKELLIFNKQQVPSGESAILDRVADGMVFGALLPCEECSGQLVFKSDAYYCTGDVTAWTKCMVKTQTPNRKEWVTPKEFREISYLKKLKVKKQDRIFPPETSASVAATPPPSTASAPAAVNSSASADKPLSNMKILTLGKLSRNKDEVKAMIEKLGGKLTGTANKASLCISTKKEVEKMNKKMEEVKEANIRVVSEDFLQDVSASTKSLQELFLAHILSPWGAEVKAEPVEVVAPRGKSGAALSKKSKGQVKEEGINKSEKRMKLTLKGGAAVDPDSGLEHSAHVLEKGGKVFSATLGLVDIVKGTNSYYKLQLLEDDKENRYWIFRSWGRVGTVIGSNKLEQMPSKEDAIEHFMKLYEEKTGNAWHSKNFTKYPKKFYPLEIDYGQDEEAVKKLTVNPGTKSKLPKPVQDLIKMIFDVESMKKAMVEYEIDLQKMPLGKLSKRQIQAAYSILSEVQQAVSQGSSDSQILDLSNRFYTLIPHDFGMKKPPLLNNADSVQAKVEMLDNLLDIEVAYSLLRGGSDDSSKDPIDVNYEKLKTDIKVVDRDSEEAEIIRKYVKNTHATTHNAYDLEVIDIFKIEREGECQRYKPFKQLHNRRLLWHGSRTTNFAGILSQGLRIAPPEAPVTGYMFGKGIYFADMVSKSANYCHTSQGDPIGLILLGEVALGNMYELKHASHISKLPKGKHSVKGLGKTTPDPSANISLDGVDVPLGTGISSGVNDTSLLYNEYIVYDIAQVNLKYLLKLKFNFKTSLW

What is called IC50 is the concentration that gives 50% inhibition. For `O=C(NC1CC1)c1ccc(N2CCN(Cc3ccc4c([nH]c(=O)n5ccnc45)c3F)CC2)c(F)n1` [Example 64, 8-((4-(2-fluoro-6-(cyclopropylcarbamoyl)pyridin-3-yl)piperazin-1-yl)methyl)-7-fluoroimidazo[1,2-c]quinazolin-5(6H)-one], the IC50 in assay [1] stood at 2.73 nM; in assay [2], 5450 nM; in the assay with MDA-MB-436 cells (Homo sapiens, MDA-MB-436, […]) it was 52.6 nM.
Taken in the same sequence, the figures for `Cc1nc(C(=O)NC2CC2)ccc1N1CCN(Cc2ccc3c([nH]c(=O)n4ccnc34)c2F)CC1` [Example 65, 8-((4-(2-methyl-6-(cyclopropylcarbamoyl)pyridin-3-yl)piperazin-1-yl)methyl)-7-fluoroimidazo[1,2-c]quinazolin-5(6H)-one] were 4.53 nM, over 10000 nM and 53.8 nM.
As to `CNC(=O)c1ccc(N2CCN(Cc3ccc4c(c3)[nH]c(=O)c3nn(C)cc34)CC2)c(C)n1` [Example 69, 7-((4-(2-methyl-6-(methylcarbamoyl)pyridin-3-yl)piperazin-1-yl)methyl)-2-methyl-2,5-dihydro-4H-pyrazolo[3,4-c]quinolin-4-one], the half-maximal inhibitory concentration (IC50) stood at 0.77 nM in assay [1]; 5780 nM in assay [2]; 4.66 nM in the assay with MDA-MB-436 cells (Homo sapiens, MDA-MB-436, […]).
For `CNC(=O)c1ccc(N2CCN(Cc3ccc4c(c3)[nH]c(=O)c3c4cnn3C)CC2)c(C)n1` [Example 71, 7-((4-(2-methyl-6-(methylcarbamoyl)pyridin-3-yl)piperazin-1-yl)methyl)-3-methyl-3,5-dihydro-4H-pyrazolo[3,4-c]quinolin-4-one], the half-maximal inhibitory concentration (IC50) in assay [1] worked out at 3.3 nM; in assay [2] it was 636 nM; with MDA-MB-436 cells (Homo sapiens, MDA-MB-436, […]), 11 nM.
As for `CNC(=O)c1ccc(N2CCN(Cc3ccc4c([nH]c(=O)n5nccc45)c3F)CC2)c(C)n1` [Example 72, 8-((4-(2-methyl-6-(methylcarbamoyl)pyridin-3-yl)piperazin-1-yl)methyl)-7-fluoropyrazolo[1,5-c]quinazolin-5(6H)-one], the figures for the IC50 (in assay [1]; in assay [2]; in the assay on MDA-MB-436 cells) were 1.08 nM, 1830 nM and 29 nM, respectively.
Consider `CNC(=O)c1ccc(N2CCN(Cc3ccc4c5c(c(=O)[nH]c4c3)CNC5)CC2)c(C)n1` [Example 74, 7-((4-(6-methylcarbamoyl-2-methylpyridin-3-yl)piperazin-1-yl)methyl)-1,2,3,5-tetrahydro-4H-pyrrolo[3,4-c]quinolin-4-one], for which the IC50 in assay [1] came to 3.31 nM; in assay [2], 2980 nM; in the assay on MDA-MB-436 cells (Homo sapiens, MDA-MB-436, […]) it was 58.2 nM.
Taken in the same sequence, the figures for `CNC(=O)c1ccc(N2CCN(Cc3ccc4c5c(c(=O)[nH]c4c3)CN(C)C5)CC2)c(C)n1` [Example 75, 7-((4-(6-methylcarbamoyl-2-methylpyridin-3-yl)piperazin-1-yl)methyl)-2-methyl-1,2,3,5-tetrahydro-4H-pyrrolo[3,4-c]quinolin-4-one] were 8.38 nM, 2380 nM and 11.1 nM.
Taken in the same sequence, the figures for `CNC(=O)c1ccc(N2CCN(Cc3cc4[nH]c(=O)c5cn(C)nc5c4cc3F)CC2)c(C)n1` [Example 89, 7-((4-(2-methyl-6-(methylcarbamoyl)pyridin-3-yl)piperazin-1-yl)methyl)-8-fluoro-2-methyl-2,5-dihydro-4H-pyrazolo[4,3-c]quinolin-4-one] were 5.81 nM, 3410 nM and 11.9 nM.
In the case of `CNC(=O)c1ccc(N2CCN(Cc3cc4[nH]c(=O)c5cn(C)nc5c4cc3F)CC2)c(F)n1` [Example 91, 7-((4-(2-fluoro-6-(methylcarbamoyl)pyridin-3-yl)piperazin-1-yl)methyl)-8-fluoro-2-methyl-2,5-dihydro-4H-pyrazolo[4,3-c]quinolin-4-one], the IC50 was 4.25 nM in assay [1]; 942 nM in assay [2]; 20.8 nM in the assay with MDA-MB-436 cells (Homo sapiens, MDA-MB-436, […]).
The corresponding values for `CNC(=O)c1ccc(N2CCN(Cc3ccc4c(c3)[nH]c(=O)c3[nH]ccc34)CC2)c(F)n1` [Example 99, 7-((4-(2-fluoro-6-(methylcarbamoyl)pyridin-3-yl)piperazin-1-yl)methyl)-3,5-dihydro-4H-pyrrolo[2,3-c]quinolin-4-one] are 5.94 nM, over 10000 nM and 53.8 nM.
As for `CNC(=O)c1ccc(N2CCN(Cc3ccc4c([nH]c(=O)c5occc54)c3C)CC2)c(F)n1` [Example 103, 7-((4-(2-fluoro-6-(methylcarbamoyl)pyridin-3-yl)piperazin-1-yl)methyl)-6-methylfuro[2,3-c]quinolin-4(5H)-one], the IC50 in assay [1] was 4.26 nM; in assay [2], 667 nM; with MDA-MB-436 cells (Homo sapiens, MDA-MB-436, […]), 12.4 nM.
The corresponding values for `CNC(=O)c1ccc(N2CCN(Cc3cc4[nH]c(=O)c5occc5c4cc3C)CC2)c(F)n1` [Example 104, 7-((4-(2-fluoro-6-(methylcarbamoyl)pyridin-3-yl)piperazin-1-yl)methyl)-8-methylfuro[2,3-c]quinolin-4(5H)-one] are 5.85 nM, 487 nM and 32 nM.
The corresponding values for `CNC(=O)c1ccc(N2CCN(Cc3ccc4c(c3)[nH]c(=O)c3ccoc34)CC2)cn1` [Example 118, 7-((4-(6-(methylcarbamoyl)pyridin-3-yl)piperazin-1-yl)methyl)furo[3,2-c]quinolin-4(5H)-one] are 0.53 nM, 273 nM and 1.56 nM.
On to `CNC(=O)c1ccc(N2CCN(Cc3cc4[nH]c(=O)n5nccc5c4cc3F)CC2)c(F)n1` [Example 120, 8-((4-(2-fluoro-6-(methylcarbamoyl)pyridin-3-yl)piperazin-1-yl)methyl)-9-fluoropyrazolo[1,5-c]quinazolin-5(6H)-one], for which the half-maximal inhibitory concentration (IC50) in assay [1] came to 1.87 nM; in assay [2], 683 nM; with MDA-MB-436 cells (Homo sapiens, MDA-MB-436, […]) it was 23.6 nM.
Taken in the same sequence, the figures for `CNC(=O)c1ccc(N2CCN(Cc3cc(F)c4c(c3)[nH]c(=O)n3cc(C)nc43)CC2)c(C)n1` [Example 136, 8-((4-(2-methyl-6-(methylcarbamoyl)pyridin-3-yl)piperazin-1-yl)methyl)-2-methyl-10-fluoroimidazo[1,2-c]quinazolin-5(6H)-one] were 1.77 nM, 931 nM and 1.04 nM.
With `CNC(=O)c1ccc(N2CCN(Cc3cc(F)c4c(c3)[nH]c(=O)n3cc(C)nc43)CC2)c(F)n1` [Example 137, 8-((4-(2-fluoro-6-(methylcarbamoyl)pyridin-3-yl)piperazin-1-yl)methyl)-2-methyl-10-fluoroimidazo[1,2-c]quinazolin-5(6H)-one], the IC50 in assay [1] was 2.16 nM; in assay [2], 266 nM; in the assay with MDA-MB-436 cells (Homo sapiens, MDA-MB-436, […]), 6.85 nM.
The corresponding values for `CNC(=O)c1ccc(N2CCN(Cc3ccc4c([nH]c(=O)c5cc(C)nn54)c3F)CC2)c(Cl)n1` [Example 151, 7-((4-(2-chloro-6-(methylcarbamoyl)pyridin-3-yl)piperazin-1-yl)methyl)-6-fluoro-2-methylpyrazolo[1,5-a]quinoxalin-4(5H)-one] are 0.5 nM, 1210 nM and 1.19 nM.
Taken in the same sequence, the figures for `CNC(=O)c1ccc(N2CCN(Cc3ccc4c([nH]c(=O)c5c(C)cnn54)c3F)C[C@H]2C)c(F)n1` [Example 166, (R)-6-fluoro-7-((4-(2-fluoro-6-(methylcarbamoyl)pyridin-3-yl)-3-methylpiperazin-1-yl)methyl)-3-methylpyrazolo[1,5-a]quinoxalin-4(5H)-one] were 0.21 nM, 801 nM and 16.2 nM.
Taken in the same sequence, the figures for `CNC(=O)c1ccc2c(n1)OC[C@H]1CN(Cc3ccc4c([nH]c(=O)c5c(C)cnn54)c3F)CCN21` [Example 167, (R)-6-fluoro-3-methyl-7-((8-methylcarbamoyl-1,2,4a,5-tetrahydropyrazino[1,2-d]pyrido[2,3-b][1,4]oxazin-3(4H)-yl)methyl)pyrazolo[1,5-a]quinoxalin-4(5H)-one] were 0.33 nM, 397 nM and 18.7 nM.
Take `CNC(=O)c1ccc(N2CCN(Cc3ccc4c([nH]c(=O)c5c(F)cnn54)c3F)CC2)c(Cl)n1` [Example 178, 7-((4-(2-chloro-6-(methylcarbamoyl)pyridin-3-yl)piperazin-1-yl)methyl)-3,6-difluoropyrazolo[1,5-a]quinoxalin-4(5H)-one]: the IC50 came to 0.28 nM in assay [1]; 1390 nM in assay [2]; 0.79 nM in the assay with MDA-MB-436 cells (Homo sapiens, MDA-MB-436, […]).
The corresponding values for `CNC(=O)c1ccc(N2CCN(Cc3cc4[nH]c(=O)c5c(F)cnn5c4cc3F)CC2)c(Cl)n1` [Example 184, 7-((4-(2-chloro-6-(methylcarbamoyl)pyridin-3-yl)piperazin-1-yl)methyl)-3,8-difluoropyrazolo[1,5-a]quinoxalin-4(5H)-one] are 0.5 nM, 67.1 nM and 2.41 nM.
Regarding `[2H]C([2H])([2H])NC(=O)c1ccc(N2CCN(Cc3ccc4c([nH]c(=O)c5c(F)cnn54)c3F)CC2)c(F)n1` [Example 185, 7-((4-(2-fluoro-6-((methyl-d3)carbamoyl)pyridin-3-yl)piperazin-1-yl)methyl)-3,6-difluoropyrazolo[1,5-a]quinoxalin-4(5H)-one], the half-inhibitory concentration (IC50) was determined as 0.24 nM in assay [1]; 431 nM in assay [2]; 0.78 nM in the assay with MDA-MB-436 cells (Homo sapiens, MDA-MB-436, […]).
Taken in the same sequence, the figures for `CNC(=O)c1ccc(N2CCN(Cc3ccc4c([nH]c(=O)c5c(Cl)c(C)nn54)c3F)CC2)c(F)n1` [Example 199, 6-fluoro-7-((4-(2-fluoro-6-(methylcarbamoyl)pyridin-3-yl)piperazin-1-yl)methyl)-2-methyl-3-chloropyrazolo[1,5-a]quinoxalin-4(5H)-one] were 0.16 nM, 17.9 nM and 1.11 nM.
For the molecule `CNC(=O)c1ccc(N2CCN(C(C)c3ccc4c([nH]c(=O)c5c(C)cnn54)c3F)CC2)c(F)n1` (stereo not drawn) [Example 204, 6-fluoro-7-(1-(4-(2-fluoro-6-(methylcarbamoyl)pyridin-3-yl)piperazin-1-yl)ethyl)-3-methylpyrazolo[1,5-a]quinoxalin-4(5H)-one], the 50% inhibitory concentration (IC50) in assay [1] is 0.68 nM; in assay [2] it was over 10000 nM; in the assay with MDA-MB-436 cells (Homo sapiens, MDA-MB-436, […]) it was 12.1 nM.
